Experimental data as given in EP4810052A2, “HCRHR2 SELECTIVE POLYPEPTIDES” (Gubra A/S, priority 2023, dated 2026).
Starred links: 1 amine or outer side, 2 acyl side, 3 side chain; linkers in the order of their positions; H or OH if unused. Non-standard residues stand in square brackets, D forms with d. Residues, ends and D or L forms follow the SMILES beside them. Groups on a side chain read outwards from the residue. *: point of attachment. C20 diacid = O=C(O)CCCCCCCCCCCCCCCCCCC(=O)*; γGlu = O=C(O)[C@H](CCC(=O)[*:2])N[*:1]; NMeI = CC[C@H](C)[C@H](NC)C(=O)O; Nle = CCCC[C@H](N)C(=O)O; AEEA = NCCOCCOCC(=O)O; Aib = CC(C)(N)C(=O)O

Legend:
[1] = Chemical stability of purified peptides (RP-UHPLC main peak purity loss); format: physicochemical
Outline: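 Peptides at about 1.0 mg/ml in 50 mM phosphate buffer pH 7.5, or pH-adjusted for the pH series, were incubated at 40 °C for 14 and 28 days. Main-peak purity was taken as main-peak area over total area by RP-UHPLC (UV 215 nm, C8, 50 °C). Purity loss was calculated versus T0.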

[2] = Thioflavin T fibril formation assay of purified peptides; format: physicochemical; set-up: key: Amyloid fibril formation detected by an increase in ThT fluorescence was denoted with "Yes"; samples without increasing ThT fluorescence hence not forming amyloid fibrils were denoted "No"
Outline: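 Compounds at 200 µM in 50 mM phosphate buffer at the stated pH values, or at 200 µM in semaglutide drug product adjusted to pH 7.4, with 4 µM ThT final. Fibrillation followed as ThT fluorescence (ex 450/em 480 nm) over 96 h at 40°C, with 5 min shaking at 700 rpm alternating with 5 min rest; triplicates.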

PK in mice = format: in vivo; set-up: T½ / MRT: unit: h; conditions: Mouse
Protocol: Lean male NMRI/RjHan mice were obtained from JanVier (JanVier Labs, France) at 6 weeks of age. The animals were single housed under a 12/12 h dark-light cycle, light off at 3 PM. Room temperature was controlled to 22°C ± 1°C, with 60 % ± 20% humidity. Animals had ad libitum access to regular rodent chow (Altromin 1324, Brogaarden, Denmark) and tap water.
After 2 weeks of acclimatization, the animals were randomized into treatment groups (n=9 per group) based on body weight. Animals were dosed IV with one peptide and SC with another peptide (15 or 50 nmol/kg) Plasma samples were collected for PK analysis at times 0.17, 1, 3, 6, 24, 30, 48, 72 and 96 hours post dosing in a sparse sampling design with 3 mice per group per timepoint. Plasma samples were analyzed using LC-MSMS and PK parameters were estimated by Non-Compartmental Analysis (NCA).

| Compound | Chemical stability at pH 7.5 after 14 days at 40°C (% degradation) ([1]; pH 7.5, 40°C, 14 days, first value of cell) | Chemical stability at pH 7.5 after 28 days at 40°C (% degradation) ([1]; pH 7.5, 40°C, 28 days, second value of cell) | Fibrillation (pH 7.5) ([2]; pH 7.5, ThT assay) | MRT (PK in mice) | T½ (PK in mice) | Chemical stability at pH 7.5 after 14 days at 40°C (% degradation) ([1]; pH 7.5, 14 days, 40°C) | Chemical stability at pH 7.5 after 28 days at 40°C (% degradation) ([1]; pH 7.5, 28 days, 40°C) | Fibrillation (pH 7.5) ([2]; pH 7.5) |
| --- | --- | --- | --- | --- | --- | --- | --- | --- |
| CC[C@H](C)[C@H](N)C(=O)N[C@H](C(=O)N[C@@H](CC(C)C)C(=O)N[C@@H](CO)C(=O)N[C@@H](CC(C)C)C(=O)N[C@@H](CC(=O)O)C(=O)N[C@H](C(=O)N1CCC[C@H]1C(=O)N[C@H](C(=O)NCC(=O)N[C@@H](CC(C)C)C(=O)N[C@@H](CC(C)C)C(=O)N[C@@H](CCC(N)=O)C(=O)N[C@H](C(=O)N[C@@H](CC(C)C)C(=O)N[C@@H](CC(C)C)C(=O)N[C@@H](CCC(=O)O)C(=O)N[C@@H](CCC(N)=O)C(=O)N[C@@H](C)C(=O)N[C@@H](CCCNC(=N)N)C(=O)N[C@@H](C)C(=O)N[C@@H](CCCNC(=N)N)C(=O)N[C@@H](C)C(=O)N[C@@H](C)C(=O)N[C@@H](CCCNC(=N)N)C(=O)N[C@@H](CCC(=O)O)C(=O)N[C@@H](CCC(N)=O)C(=O)N[C@@H](C)C(=O)N[C@H](C(=O)N[C@@H](CCCCNC(=O)COCCOCCNC(=O)COCCOCCNC(=O)CC[C@H](NC(=O)CC[C@H](NC(=O)CCCCCCCCCCCCCCCCCCC(=O)O)C(=O)O)C(=O)O)C(=O)N[C@@H](CC(N)=O)C(=O)N[C@@H](C)C(=O)N[C@@H](CCC(=O)O)C(=O)N[C@H](C(=O)N[C@@H](CC(C)C)C(=O)N[C@@H](C)C(=O)N[C@@H](CCC(=O)O)C(=O)N[C@H](C(N)=O)C(C)C)[C@@H](C)CC)[C@@H](C)O)[C@@H](C)CC)[C@@H](C)CC)C(C)C)C(C)C [SEQ ID NO: 4] (H-IVLSLDVPIGLLQILLEQARARAAREQATK([AEEA-AEEA-γGlu-γGlu-C20 diacid])NAEILAEV-NH2) | -1.3% | -3.9% | No | 18.2 | 14.8 | – | – | – |
| CC[C@H](C)[C@H](NC)C(=O)N[C@H](C(=O)N[C@@H](CC(C)C)C(=O)N[C@@H](CO)C(=O)N[C@@H](CC(C)C)C(=O)N[C@@H](CC(=O)O)C(=O)N[C@H](C(=O)N1CCC[C@H]1C(=O)N[C@H](C(=O)NCC(=O)N[C@@H](CC(C)C)C(=O)N[C@@H](CC(C)C)C(=O)N[C@@H](CCC(N)=O)C(=O)N[C@H](C(=O)N[C@@H](CC(C)C)C(=O)N[C@@H](CC(C)C)C(=O)N[C@@H](CCC(=O)O)C(=O)N[C@@H](CCC(N)=O)C(=O)N[C@@H](C)C(=O)N[C@@H](CCCNC(=N)N)C(=O)N[C@@H](C)C(=O)N[C@@H](CCCNC(=N)N)C(=O)N[C@@H](C)C(=O)N[C@@H](C)C(=O)N[C@@H](CCCNC(=N)N)C(=O)N[C@@H](CCC(=O)O)C(=O)N[C@@H](CCC(N)=O)C(=O)N[C@@H](C)C(=O)N[C@@H](CCCCNC(=O)COCCOCCNC(=O)COCCOCCNC(=O)CC[C@H](NC(=O)CC[C@H](NC(=O)CCCCCCCCCCCCCCCCCCC(=O)O)C(=O)O)C(=O)O)C(=O)N[C@H](C(=O)N[C@@H](CC(N)=O)C(=O)N[C@@H](C)C(=O)N[C@@H](CCC(=O)O)C(=O)N[C@H](C(=O)N[C@@H](CC(C)C)C(=O)N[C@@H](C)C(=O)N[C@@H](CCC(=O)O)C(=O)N[C@H](C(N)=O)C(C)C)[C@@H](C)CC)[C@@H](C)O)[C@@H](C)CC)[C@@H](C)CC)C(C)C)C(C)C [SEQ ID NO: 5] (H-[NMeI]VLSLDVPIGLLQILLEQARARAAREQAK([AEEA-AEEA-γGlu-γGlu-C20 diacid])TNAEILAEV-NH2) | – | – | No | 21 | 14.3 | – | – | – |
| CCCC[C@H](NC(=O)[C@@H](NC(=O)[C@H](CCC(=O)O)NC(=O)[C@H](C)NC(=O)[C@H](CC(N)=O)NC(=O)[C@H](CCC(=O)O)NC(=O)[C@H](CCCCNC(=O)COCCOCCNC(=O)COCCOCCNC(=O)CC[C@H](NC(=O)CC[C@H](NC(=O)CCCCCCCCCCCCCCCCCCC(=O)O)C(=O)O)C(=O)O)NC(=O)[C@H](C)NC(=O)[C@H](CCC(N)=O)NC(=O)[C@H](CCC(=O)O)NC(=O)[C@H](CCCNC(=N)N)NC(=O)[C@H](C)NC(=O)[C@H](C)NC(=O)[C@H](CCCNC(=N)N)NC(=O)[C@H](C)NC(=O)[C@H](CCCNC(=N)N)NC(=O)[C@H](C)NC(=O)[C@H](CCC(N)=O)NC(=O)[C@H](CO)NC(=O)[C@H](CC(C)C)NC(=O)[C@H](CC(C)C)NC(=O)[C@@H](NC(=O)[C@H](CCC(N)=O)NC(=O)[C@H](CC(C)C)NC(=O)[C@H](CC(C)C)NC(=O)CNC(=O)[C@@H](NC(=O)[C@@H]1CCCN1C(=O)[C@@H](NC(=O)[C@H](CC(=O)O)NC(=O)[C@H](CC(C)C)NC(=O)[C@H](CO)NC(=O)[C@H](CC(C)C)NC(=O)[C@@H](NC(=O)[C@@H](NC)[C@@H](C)CC)C(C)C)C(C)C)[C@@H](C)CC)[C@@H](C)CC)[C@@H](C)CC)C(=O)N[C@@H](C)C(=O)N[C@@H](CCC(=O)O)C(=O)N[C@H](C(N)=O)C(C)C [compound 101] (H-[NMeI]VLSLDVPIGLLQILLSQARARAAREQAK([AEEA-AEEA-γGlu-γGlu-C20 diacid])ENAEI[Nle]AEV-NH2) | – | – | – | – | – | -2.2% | -4.3% | No |
| CCCC[C@H](NC(=O)[C@@H](NC(=O)[C@H](CCC(=O)O)NC(=O)[C@H](C)NC(=O)[C@H](CC(N)=O)NC(=O)C(C)(C)NC(=O)[C@H](CCCCNC(=O)COCCOCCNC(=O)COCCOCCNC(=O)CC[C@H](NC(=O)CC[C@H](NC(=O)CCCCCCCCCCCCCCCCCCC(=O)O)C(=O)O)C(=O)O)NC(=O)[C@H](C)NC(=O)[C@H](CCC(N)=O)NC(=O)[C@H](CCC(=O)O)NC(=O)[C@H](CCCNC(=N)N)NC(=O)[C@H](C)NC(=O)[C@H](C)NC(=O)[C@H](CCCNC(=N)N)NC(=O)[C@H](C)NC(=O)[C@H](CCCNC(=N)N)NC(=O)[C@H](C)NC(=O)[C@H](CCC(N)=O)NC(=O)[C@H](CO)NC(=O)[C@H](CC(C)C)NC(=O)[C@H](CC(C)C)NC(=O)[C@@H](NC(=O)[C@H](CCC(N)=O)NC(=O)[C@H](CC(C)C)NC(=O)[C@H](CC(C)C)NC(=O)CNC(=O)[C@@H](NC(=O)[C@@H]1CCCN1C(=O)[C@@H](NC(=O)[C@H](CC(=O)O)NC(=O)[C@H](CC(C)C)NC(=O)[C@H](CO)NC(=O)[C@H](CC(C)C)NC(=O)[C@@H](NC(=O)[C@@H](NC)[C@@H](C)CC)C(C)C)C(C)C)[C@@H](C)CC)[C@@H](C)CC)[C@@H](C)CC)C(=O)N[C@@H](C)C(=O)N[C@@H](CCC(=O)O)C(=O)N[C@H](C(N)=O)C(C)C [compound 132] (H-[NMeI]VLSLDVPIGLLQILLSQARARAAREQAK([AEEA-AEEA-γGlu-γGlu-C20 diacid])[Aib]NAEI[Nle]AEV-NH2) | – | – | – | 16 | 11.2 | -1.6% | -1.3% | No |
| CCCC[C@H](NC(=O)[C@@H](NC(=O)[C@H](CCC(=O)O)NC(=O)[C@H](C)NC(=O)[C@H](CC(N)=O)NC(=O)C(C)(C)NC(=O)[C@H](CCCCNC(=O)COCCOCCNC(=O)COCCOCCNC(=O)CC[C@H](NC(=O)CC[C@H](NC(=O)CCCCCCCCCCCCCCCCCCC(=O)O)C(=O)O)C(=O)O)NC(=O)[C@H](C)NC(=O)[C@H](CCC(N)=O)NC(=O)[C@H](CCC(=O)O)NC(=O)[C@H](CCCNC(=N)N)NC(=O)[C@H](C)NC(=O)[C@H](C)NC(=O)[C@H](CCCNC(=N)N)NC(=O)[C@H](C)NC(=O)[C@H](CCCNC(=N)N)NC(=O)[C@H](C)NC(=O)[C@H](CCC(N)=O)NC(=O)[C@H](CO)NC(=O)[C@H](CC(C)C)NC(=O)[C@H](CC(C)C)NC(=O)[C@@H](NC(=O)[C@H](CCC(N)=O)NC(=O)[C@H](CC(C)C)NC(=O)[C@H](CC(C)C)NC(=O)CNC(=O)[C@@H](NC(=O)[C@@H]1CCCN1C(=O)[C@@H](NC(=O)[C@H](CC(=O)O)NC(=O)[C@H](CC(C)C)NC(=O)[C@H](CO)NC(=O)[C@H](CC(C)C)NC(=O)[C@@H](NC(=O)[C@@H](N)[C@@H](C)CC)C(C)C)C(C)C)[C@@H](C)CC)[C@@H](C)CC)[C@@H](C)CC)C(=O)N[C@@H](C)C(=O)N[C@@H](CCC(=O)O)C(=O)N[C@H](C(N)=O)C(C)C [compound 237] (H-IVLSLDVPIGLLQILLSQARARAAREQAK([AEEA-AEEA-γGlu-γGlu-C20 diacid])[Aib]NAEI[Nle]AEV-NH2) | – | – | – | – | – | -1.1% | -2.8% | No |
